Assay: excess molar enthalpy (molar enthalpy of mixing); xn = mol fraction of the nth substance listed
Settings: 298.15 K, 100 kPa

C=COC(C)=O + COC(=O)OC
Settings | excess molar enthalpy [kcal/mol]
x2 = 0.0437 | -0.001
x2 = 0.0838 | -0.00268
x2 = 0.1207 | -0.0039
x2 = 0.1546 | -0.00507
x2 = 0.2153 | -0.00722
x2 = 0.2679 | -0.00872
x2 = 0.3544 | -0.0104
x2 = 0.4226 | -0.0111
x2 = 0.5233 | -0.0111
x2 = 0.6222 | -0.0103
x2 = 0.8145 | -0.00571
x2 = 0.8682 | -0.00361
x2 = 0.8978 | -0.00253
x2 = 0.9294 | -0.00143
x2 = 0.9634 | -0.000645

CCCCCCOC(C)=O + COC(=O)OC
Settings | excess molar enthalpy [kcal/mol]
x2 = 0.0755 | 0.0206
x2 = 0.1404 | 0.0382
x2 = 0.2462 | 0.0688
x2 = 0.3289 | 0.0899
x2 = 0.3951 | 0.104
x2 = 0.4949 | 0.116
x2 = 0.5665 | 0.12
x2 = 0.7462 | 0.101
x2 = 0.7967 | 0.0903
x2 = 0.8546 | 0.0698
x2 = 0.9216 | 0.0406
x2 = 0.94 | 0.0304
x2 = 0.9522 | 0.0261

CCCCCOC(C)=O + COC(=O)OC
Settings | excess molar enthalpy [kcal/mol]
x2 = 0.0684 | 0.0139
x2 = 0.128 | 0.0272
x2 = 0.1804 | 0.0392
x2 = 0.2269 | 0.0502
x2 = 0.3057 | 0.0669
x2 = 0.3699 | 0.0808
x2 = 0.54 | 0.0954
x2 = 0.6378 | 0.093
x2 = 0.7254 | 0.0815
x2 = 0.7789 | 0.0722
x2 = 0.8409 | 0.0571
x2 = 0.8757 | 0.0476
x2 = 0.9337 | 0.0263
x2 = 0.9548 | 0.0179
x2 = 0.9769 | 0.00908

CCCCOC(C)=O + COC(=O)OC
Settings | excess molar enthalpy [kcal/mol]
x2 = 0.0612 | 0.0117
x2 = 0.1153 | 0.022
x2 = 0.1636 | 0.0313
x2 = 0.2068 | 0.0397
x2 = 0.2812 | 0.0509
x2 = 0.3428 | 0.0586
x2 = 0.4389 | 0.0667
x2 = 0.5105 | 0.0688
x2 = 0.7578 | 0.0554
x2 = 0.8112 | 0.0454
x2 = 0.8622 | 0.0361
x2 = 0.9037 | 0.0263
x2 = 0.926 | 0.0203
x2 = 0.9494 | 0.0143
x2 = 0.9741 | 0.00765

CCCOC(C)=O + COC(=O)OC
Settings | excess molar enthalpy [kcal/mol]
x2 = 0.0538 | 0.00789
x2 = 0.1021 | 0.0143
x2 = 0.1457 | 0.0196
x2 = 0.1853 | 0.0249
x2 = 0.2544 | 0.0311
x2 = 0.3127 | 0.0361
x2 = 0.4056 | 0.0413
x2 = 0.4764 | 0.0437
x2 = 0.5771 | 0.044
x2 = 0.6718 | 0.0409
x2 = 0.8912 | 0.0174
x2 = 0.9161 | 0.0134

CCOC(C)=O + COC(=O)OC
Settings | excess molar enthalpy [kcal/mol]
x2 = 0.0426 | 0.00177
x2 = 0.0883 | 0.00289
x2 = 0.1269 | 0.00413
x2 = 0.1623 | 0.00504
x2 = 0.2252 | 0.00626
x2 = 0.3677 | 0.00832
x2 = 0.5376 | 0.00975
x2 = 0.6356 | 0.00956
x2 = 0.7772 | 0.00755
x2 = 0.823 | 0.00667
x2 = 0.9029 | 0.00406
x2 = 0.9331 | 0.00284
x2 = 0.9654 | 0.00146

COC(C)=O + COC(=O)OC
Settings | excess molar enthalpy [kcal/mol]
x2 = 0.0729 | -0.000191
x2 = 0.1055 | -0.000574
x2 = 0.1359 | -0.0011
x2 = 0.2393 | -0.00237
x2 = 0.3206 | -0.00289
x2 = 0.3862 | -0.00313
x2 = 0.586 | -0.00232
x2 = 0.739 | -0.00098
x2 = 0.7906 | -0.000669
x2 = 0.8499 | -9.56e-05
x2 = 0.883 | 0.000167
x2 = 0.9189 | 0.000454
x2 = 0.9577 | 0.000215

Source: a compilation of properties of binary mixtures (doi:10.1021/je970101l)
